According to US4683240A, “Pharmaceutical composition containing an imidazolidinetrione derivative or pharmaceutically acceptable salt thereof” (Nippon Zoki Pharmaceutical Co., Ltd., priority 1985, dated 1987):
Read-outs that look alike come from different tables or passages of the source.

What was measured:
[1] = Acute toxicity test (oral); design: species or system mouse (ddY-strain); conditions: mouse, in vivo, male ddY mice, fasted 20 h, deaths over 7 days
Method: The test compounds of the present invention suspended in 0.5% aqueous solution of carboxymethylcellulose (C.M.C.) were orally administered to groups of 4 to 6 ddY-strain male mice (weighing about 19 g) which had fasted for 20 hours. The lethal dose was determined by the number of deaths for 7 days thereafter.

Blood Glucose = assay: Hypoglycemic effect in glucose-loaded fasted rats (blood glucose); format: in vivo, rat (Wistar-strain); conditions: 2 h
Method: Groups of 7 Wistar-strain male rats (weighing about 200 g) which were fasted for 18 hours were used for measurement of hypoglycemic effect according to the modified method by Dulin et al. [Dulin, W. L. et al., Proc. Soc. Expl. Med., 107, 245 (1961)]. That is, 0.5 ml/100 g of 20% aqueous solution of glucose was subcutaneously administered to the backs of rats to prevent a decrease in blood glucose level because of the fasting. Immediately thereafter the test drug suspended in 0.5% aqueous C.M.C. solution was orally given, and 2 hours later, the animals underwent laparotomy under pentobarbital anesthesia, then blood was drawn from the vena cava. The obtained blood sample was allowed to stand for 30 minutes to complete the coagulation and was centrifuged to obtain the serum. Blood sugar level was measured according to the mutalotase GOD method [Trinder, Ann. Clin. Biochem., 6, 24 […]]. Asterisks indicate significant differences (*: p<0.05, **: p<0.01, ***: p<0.001) from the control.

Serum Triglyceride = assay: Hypolipidemic effect: serum triglyceride; format: in vivo, rat (Wistar-strain); conditions: 100 mg/kg oral, 2 h; for Serum Triglyceride Level: control 65 ± 5 (compounds 2-12), 57 ± 4 (compounds 15-29); for inhibition in vivo at 100 mg/kg: Rattus norvegicus, vs control, read-out: Serum Triglyceride Decrease
Method: (§1) The test drugs suspended in 0.5% aqueous C.M.C. solution were orally administered to groups of 8 Wistar-strain male rats (weighing about 185 g) which were fasted for 18 to 20 hours. 2 hours later, the serum was obtained in the same manner described in (2). Serum triglyceride was measured according to the GPO-p-chlorophenol colorimetric determination [Richard W. Spayd et al., Clinical Chemistry, 24, 1343 (1978)], serum free fatty acid was measured according to the Acyl CoA Synthetase-Acyl CoA Oxidase method [Shimizu S. et al., Biochem. Biophys. Res. Commun., 91, 108 (1979)], free fatty acid was measured according to the enzymatic method [Charles C. Allain et al., Clin. Chem., 20, No. 4, 470 (1974)] and total cholesterol was measured according to the enzymatic method [Takayama M. et al., Clinica Chimica Acta, 79, 93 (1977)]. Asterisks indicate significant differences (*: p<0.05, **: p<00.01, ***: p<0.001) from the control.

Serum Free Fatty Acid = assay: Hypolipidemic effect: serum free fatty acid; format: in vivo, rat (Wistar-strain); conditions: 100 mg/kg oral, 2 h; for Serum Free Fatty Acid Level: control 0.53 ± 0.03 (compounds 2-12), 0.52 ± 0.03 (compounds 15-24); for inhibition in vivo at 100 mg/kg: Rattus norvegicus, vs control, read-out: Serum Free Fatty Acid Decrease
Method: as §1

Serum Phospholipid = assay: Hypolipidemic effect: serum phospholipid; format: in vivo, rat (Wistar-strain); conditions: 100 mg/kg oral, 2 h; for Serum Phospholipid Level: control 79 ± 2 (compounds 2-12), 72 ± 2 (compounds 15-29); for inhibition in vivo at 100 mg/kg: Rattus norvegicus, vs control, read-out: Serum Phospholipid Decrease
Method: as §1

Total Serum Cholesterol = assay: Hypolipidemic effect: total serum cholesterol; format: in vivo, rat (Wistar-strain); conditions: 100 mg/kg oral, 2 h
Method: as §1

[2] = Rattus norvegicus, Table 2, 100 mg/kg oral, vs control, read-out: Blood Glucose Decrease
[3] = Table 2, 100 mg/kg oral, control 133 ± 6

Compound	LD50 at 168 h [1] [mg/kg]	inhibition in vivo at 12.5 mg/kg (Blood Glucose; Rattus norvegicus, Table 2, 12.5 mg/kg oral, vs control, read-out: Blood Glucose Decrease) [%]	inhibition in vivo at 25 mg/kg (Blood Glucose; Rattus norvegicus, Table 2, 25 mg/kg oral, vs control, read-out: Blood Glucose Decrease) [%]	inhibition in vivo at 50 mg/kg (Blood Glucose; Rattus norvegicus, Table 2, 50 mg/kg oral, vs control, read-out: Blood Glucose Decrease) [%]	inhibition in vivo at 100 mg/kg (Blood Glucose; [2]) [%]	Blood Glucose Level (Blood Glucose; Table 2, 12.5 mg/kg oral, control 133 ± 6) [mg/dL]	Blood Glucose Level (Blood Glucose; Table 2, 25 mg/kg oral, control 133 ± 6) [mg/dL]	Blood Glucose Level (Blood Glucose; Table 2, 50 mg/kg oral, control 133 ± 6) [mg/dL]	Blood Glucose Level (Blood Glucose; [3]) [mg/dL]	Serum Triglyceride Level (Serum Triglyceride) [mg/dL]	inhibition in vivo at 100 mg/kg (Serum Triglyceride) [%]	Serum Free Fatty Acid Level (Serum Free Fatty Acid) [mEq/l]	inhibition in vivo at 100 mg/kg (Serum Free Fatty Acid) [%]	Serum Phospholipid Level (Serum Phospholipid) [mg/dL]	inhibition in vivo at 100 mg/kg (Serum Phospholipid) [%]	inhibition in vivo at 100 mg/kg (Blood Glucose; Rattus norvegicus, Table 3, 100 mg/kg oral, vs control, read-out: Blood Glucose Decrease) [%]	Blood Glucose Level (Blood Glucose; Table 3, 100 mg/kg oral, control 133 ± 4) [mg/dL]	Total Serum Cholesterol Level (Total Serum Cholesterol; control 44 ± 2 (compounds 4-12), 41 ± 1 (compounds 15-29)) [mg/dL]	inhibition in vivo at 100 mg/kg (Total Serum Cholesterol; Rattus norvegicus, vs control, read-out: Total Serum Cholesterol Decrease) [%]
CN1C(=O)NC(=O)C1=O [compound 2, 1-methylimidazolidinetrione]	~900	18	25.6	31.6	25.6	109 ± 5	99 ± 2	91 ± 4	99 ± 5	22 ± 1	66.2	0.25 ± 0.03	52.8	59 ± 1	25.3	–	–	–	–
CCN1C(=O)NC(=O)C1=O [compound 3, 1-ethylimidazolidinetrione]	~700	–	–	–	24.8	–	–	–	100 ± 2	–	–	–	–	–	–	–	–	–	–
O=C1NC(=O)N(Cc2ccccc2)C1=O [compound 15, 1-benzylimidazolidinetrione]	~1000	–	–	–	–	–	–	–	–	30 ± 1	47.4	0.44 ± 0.02	15.4	52 ± 1	27.8	15.8	112 ± 3	33 ± 1	19.5
